The source of these data is patent publication US20200261418A1, “HDAC INHIBITOR IN COMBINATION WITH IMMUNE CHECKPOINT MODULATOR FOR CANCER THERAPY” (4SC AG, priority 2017, published 2020).

Molecules are shown by their SMILES. Read-outs that look alike come from different tables or passages of the source.

One data set concerns CT26 cells. Kind of data set: Preclinical murine in vivo tumor model, CT26. More on the design: species or system female Balb/c mice. The following applies: CT26 model (FIG. 2); anti-PD-L1 10 mg/kg IP; 4SC-202 at 20 mg/kg PO alone or combined. On the procedure: (§1) In vivo murine tumor models were conducted with a combination of 4SC-202 and murine anti-PD-1 and anti-PD-L1 antibodies, respectively. 1×10^6 CT26 cells or 30-50 mg C38 tumor fragments (both […] colon carcinoma cell lines) were subcutaneous implantation into the right flank of female C57Bl/6 (C38 tumor fragments) or Balb/c (CT26 cells) mice, respectively, at day 0 of the experiment.
Protocol CT26: At D7, when tumors reached a mean volume of 73±21 mm^3, 80 mice out of 104, were randomized according to their individual tumor volume into 4 groups of 20 mice each. […]
(§2) Monitoring of mice body weights and tumor volume twice a week. […] Tumor width and length were measured using a digital caliper twice a week and estimated tumor volumes were calculated from measured tumor length and width using the formula Estimated tumor volume=width^2×length/2. […]

The nature of data set [1]: Food effect dog study, plasma pharmacokinetics. The format is in vivo, dogs (male Beagle). The following applies: approx. 60 mg/kg oral tablets; for AUC: male, Beagle, dog, plasma, po, 60 mg/kg, three dogs, read-out: AUC geometric mean. On the procedure: A pharmacokinetic profile for 4SC-202 was determined in an animal study comprising three dogs (male Beagle). To allow for better comparison of the fasted/fed values and eliminate inter-subject variability, each dog first received a first dose of 4SC-202 in the fasted state, and after a wash-out phase of one week, received another dose of 4SC-202 in the fed state. After each respective dose, the plasma pK of 4SC-202 was determined
Before the first dosing, the dogs were fasted overnight and food was returned after the 4 h post-dose blood sampling collections. On each dosing day, the dogs received a single intramuscular injection of freshly prepared Pentagastrin (6 μg/kg and 0.05 mL/kg) 30-33 min prior to oral treatment with approx. 60 mg/kg 4SC-202 (tablet as detailed herein below); for fed animals, these steps were omitted and the dogs received their usual meal approx. 30 min prior to dosing. The number of tablets (4SC-202 tosylate corresponding to 100 mg 4SC-202 free base per tablet) was rounded to the nearest whole tablet based on dose and animal pre-dose body weight. Immediately after dosing the animals received 20 mL of water after oral gavage or were offered 20 mL of water to assist swallowing of the tablets.
Blood samples (1 ml per sample in K2EDTA as anticoagulant) were collected by venipuncture of a peripheral vein and placed on wet ice immediately after collection until centrifugation as 2000*g for 10 min at 2-8° C. to isolate plasma. […]
The concentration of 4SC-202 (free base) in plasma samples was determined by first precipitating the samples with three volume equivalents of acetonitrile containing the internal standard. […]
For the preparation of calibration samples, 4SC-202 tosylate salt was dissolved in dimethylsulfoxide to a concentration of 1.00 mg/mL free base. […] The concentrations were calculated under consideration of purity and salt factor where applicable. All concentrations are expressed as those of the free base. […] The concentration was calculated under consideration of purity and salt factor. […]

In data set [2] the test system is heavily pre-treated patients with different types of blood cancer. The following applies: cited from earlier work.
The next data set relates to C38 tumor fragments. Kind of data set: Preclinical murine in vivo tumor model, C38. Set-up: species or system female C57Bl/6 mice. Particulars: C38 model (FIG. 1); anti-PD1 10 mg/kg IP; 4SC-202 at 20 mg/kg PO alone or combined. On the procedure: as §1
Protocol C38: At D10, when tumors reached a mean volume of 142±27 mm^3, 160 mice out of 224, were randomized according to their individual tumor volume into 8 groups of 20 mice each. […]
as §2

A short description of data set [3]: Handling of 4SC-202 tosylate calibration solutions (light stability). The format is physicochemical. The following applies: solutions in dimethylsulfoxide and dimethylsulfoxide/acetonitrile. On the procedure: For the preparation of calibration samples, 4SC-202 tosylate salt was dissolved in dimethylsulfoxide to a concentration of 1.00 mg/mL free base. For the preparation of QC samples, a second solution with a concentration of 1.00 mg/mL free base was used. Working solutions were prepared by serial dilutions in a mixture of dimethylsulfoxide/acetonitrile (50/50, v/v) to concentrations 50 times higher than the corresponding concentrations in matrix. The concentrations were calculated under consideration of purity and salt factor where applicable. All concentrations are expressed as those of the free base. […] The concentrations of the calibration are (ng/mL): 1.00, 2.00, 5.00, 20.00, 100, 500, 750, 1000. The concentrations of the QC are (ng/mL): 13.00, 20.00, 750 For preparation of the CAL and QC, the matrix was fortified with the working solutions using a ratio of 98/2 (v/v). For the preparation of the internal standard solution, 4SC-201-d6 mesylate salt was dissolved in dimethylsulfoxide to a concentration of 1.00 mg/mL of the free base. Further dilutions to a final concentration of 100 ng/mL were done in acetonitrile. The concentration was calculated under consideration of purity and salt factor.

Consider `Cn1cc(-c2ccc(S(=O)(=O)n3ccc(/C=C/C(=O)Nc4ccccc4N)c3)cc2)cn1` [Compound 4SC-202, (E)-N-(2-aminophenyl)-3-(1-((4-(1-methyl-1H-pyrazol-4-yl)phenyl)sulfonyl)-1H-pyrrol-3-yl)acrylamide], for which the “anti-tumor activity compared to mice treated with vehicle” value in the data set with CT26 cells and in the data set on C38 tumor fragments was “increase of the antitumor activity” in each case. In data set [1] (dogs), the “AUC increase of the fed state over the fasted state” value is reported as “about 3.5 fold”. Further, the AUC in data set [1] (fasted) came out at 3980 ng·h/mL; in data set [1] (fed) it was 13900 ng·h/mL. The “tolerability (adverse events)” value in data set [2] (24 heavily pre-treated patients, few and/or manageable adverse events) is listed as “well tolerated”. Also, the “disease control, share of patients” value in data set [2] (24 patients) is listed as 83%. In addition, in data set [2] (24 patients), the “long-term stabilization, share of patients” value is reported as 50%. Moreover, the “complete remission, duration” value in data set [2] (one complete remission among 24 patients) is recorded as 28 months. Further, the “partial responder, duration” value in data set [2] (one partial responder among 24 patients) is 8 months.
On to `Cc1ccc(S(=O)(=O)O)cc1.Cn1cc(-c2ccc(S(=O)(=O)n3ccc(/C=C/C(=O)Nc4ccccc4N)c3)cc2)cn1` [4SC-202 tosylate salt], for which the “light stability of solutions” value in data set [3] is reported as “light instability”.
